Measured values: patent US9757408B2 (Hayashibara Co., Ltd., priority 2010, dated 2017)
Marks after values point to notes of the source that are not given here.

How the values were obtained:
[1] = tested on: IL-8 production from NHEK cells; experiment: IL-8 production from NHEK cells irradiated with ultraviolet B (Experiment 17); assay type: cell-based, human; settings: for IL-8: NHEK cells, stimulation by ultraviolet rays; for production of IL-8 from NHEK cells induced by ultraviolet rays: UVB 40 mJ/cm^2, supernatant at six hours
Experimental: “CELLMATRIX TYPE IV”, a product name of collagen for tissue culture commercialized by Nitta Gelatin Inc., Osaka, Japan, which had been diluted with PBS(K-) by 10 times, was previously placed in “FALCON 35-3001”, a product name of 35 mm petri dish commercialized by Becton Dickinson and Company, NJ, USA, in an amount of 1 mL/plate, and then allowed to stand at ambient temperature for 10 min, followed by removing an excessive amount of CELLMATRIX, drying the petri dish in air, and washing it thrice with PBS(K-). […] The cells were cultured at 37° C. in a 5% v/v CO2 incubator. On the 2nd and 4th days after the cell inoculation, the medium was replaced with EpiLife medium free of EDGS (1 mL/plate). On the 5th day after the cell inoculation, the supernatant was removed, and the petri dish was washed twice by adding 1 mL/petri dish of Hanks' balanced salt solution (called “HBSS (−) buffer”, hereinafter). Further, 2 mL/petri dish of HBSS (−) buffer was added to the petri dish which was then placed in the position 15 cm apart from an ultraviolet ray light source and irradiated with 40 mJ/cm^2 of ultraviolet B radiation. […] As an ultraviolet ray light source, “NS-8F”, a light source for actual use commercialized by Sanwa Medical Co., Ltd., Okayama, Japan, equipped with an ultraviolet B radiation lamp was used, and the radiation dose was measured on “UVR-305/365D (II)”, an ultraviolet ray meter commercialized by Topcon Corporation, Tokyo, Japan. TNF-α was assayed by the same method as in Experiment 2. The remaining other cytokines were assayed with an IL-1α assay kit, commercialized by R & D Systems Inc., MN, USA, and an IL-8 assay kit commercialized by BioLegend, CA, USA.

[2] = tested on: mice with bacterial shock induced by LPS; experiment: LPS bacterial shock mice, survival, ANO, adenosine or inosine i.v. (Experiment 9); assay type: in vivo, BALB/c mice; settings: LPS 18 mg/kg i.p.
Experimental: An LPS specimen derived from E. coli (055:B5), commercialized by Sigma-Aldrich Corporation, St. Louis, Mo. USA, was dissolved in PBS and intraperitoneally administered to all the seven mice in the four groups at a dose of 18 mg/kg body weight. […] Seven mice in the remaining one group were intravenously administered with PBS as a control in a volume of 0.2 mL/head (Experiment group 1). For each group, the survival number of mice was confirmed up to 7 to 43 hours after administering LPS and the survival rate (%) of mice in each group was determined.

KK-Ay mice = KK-Ay mice kidney inflammation: body weight, kidney ratio, blood glucose, HbA1c, renal glomerulus consolidation (Experiment 14); assay type: in vivo; settings: 10 weeks; for Percentage of subject with renal glomerulus solidification (++): (++) = at least 50% consolidation; for Blood glucose level: fasted 16 hours
Text: Fifty KK-Ay mice, 5-week-old, male, commercialized by Japan Crea Co., Tokyo, Japan, were preliminary bred for one week on CE-2 feed commercialized by Japan Crea Co., Tokyo, Japan, measured for body weight and blood glucose level in blood samples collected from their tail veins, and randomly grouped into five groups, ten heads each, after balancing each measured value. One of the five groups was made into a control group and the mice of the group were allowed to take water freely and bred for 10 weeks (Experiment group 1). […] Throughout the periods of preliminary breeding and testing, the mice were bred while freely allowing them to take CE-2 feed at 22±2° C. under a light-dark cycle of 12 hours (lighting: from 7:00 to 19:00). At the termination of the test, the mice were evaluated based on their body weight, weight ratio of kidney, blood glucose level, hemoglobin A1c (HbA1c), and pathological findings of renal disorder by autopsy, and the percentage of mice with at least 50% consolidation (++) of renal glomerulus against the total glomus is shown in Table 15. The weight ratio of kidney was determined by dividing the weight of kidney by the body weight. The blood glucose level, HbA1c, and denatured score of renal glomerulus were determined by the following method.
At the termination of the test, the mice were fasted for 16 hours prior to autopsy and collected blood from their postcava for measurement of fasting glucose level. The blood glucose level was determined by “GLUCOSE CII-TEST WAKO”, a product name of a commercialized reagent for blood glucose level commercialized by Wako Pure Chemical Industries Ltd., Tokyo, Japan.
At the termination of the test, the mice were fasted for 16 hours before autopsy and collected blood from their postcava for measurement of interdigestive HbA1c level. The measurement was asked FALCO biosystems Ltd., Kyoto, Japan, a privately-owned clinical inspection institute.
At the autopsy, each mouse was collected his kidney which was then fixed with neutral buffered formalin, prepared into a pathologic tissue section in usual manner, and stained with hematoxylin-eosin staining (H-E staining) and PAS staining. For the stained pathologic tissue section of each mouse, they were compared with that of the control and the pathological findings by microscopic observation were judged based on the following criteria and scored for an index of the denaturation of renal disorder.
The degree of renal disorder was judged based on the degree of consolidation of renal glomerulus: The degree was judged based on the four grades; (++), meaning that at least 50% consolidation of renal glomerulus is observed against the total glomus; (+), meaning that at least 25% but below 50% consolidation of renal glomerulus is observed against the total glomus; (±), meaning that less than 25% consolidation of renal glomerulus is observed against the total glomus; and (−), meaning that no consolidation of renal glomerulus is observed against the total glomus. The pathological findings of kidney was judged based on an evaluation criterion for pathologic tissue (see, for example, the lines 12 to 21 at page 862 of “American Journal of Pathology”, Vol. 160, No. 3, pp. 861-867, 2002, by Andrea Hartner et al.).

| SMILES | IL-8 ([1]; 1 μM) [pg/mL] | IL-8 ([1]; 5 μM) [pg/mL] | IL-8 ([1]; 10 μM) [pg/mL] | production of IL-8 from NHEK cells induced by ultraviolet rays [1] | Survival rate (%) of mice, 7 Hours ([2]; 127 mg/kg i.v. simultaneously) [%] | Survival rate (%) of mice, 19 Hours ([2]; 127 mg/kg i.v. simultaneously) [%] | Survival rate (%) of mice, 26 Hours ([2]; 127 mg/kg i.v. simultaneously) [%] | Survival rate (%) of mice, 43 Hours ([2]; 127 mg/kg i.v. simultaneously) [%] | HbA1c value (KK-Ay mice; 94 mg/kg body weight/day) [%] | Percentage of subject with renal glomerulus solidification (++) (KK-Ay mice; 94 mg/kg body weight/day) [%] | Blood glucose level (KK-Ay mice; 94 mg/kg body weight/day) [mg/dL] | further results |
| --- | --- | --- | --- | --- | --- | --- | --- | --- | --- | --- | --- | --- |
| Nc1ncnc2c1ncn2[C@@H]1O[C@H](CO)[C@@H](O)[C@H]1O [AN, adenosine] | 177 | 172 | 175 | did not influence | 100 | 20 | 0 | 0 | 6.72 | 100 | 342 |  |
| Nc1c2ncn([C@@H]3O[C@H](CO)[C@@H](O)[C@H]3O)c2nc[n+]1[O-] [ANO, adenosine N1-oxide] | 107 | 89 | 51 | inhibited |  |  |  |  |  |  |  | Survival rate (%) of mice, 7 Hours ([2]; 135 mg/kg i.v. simultaneously): 100%; Survival rate (%) of mice, 19 Hours ([2]; 135 mg/kg i.v. simultaneously): 80%; Survival rate (%) of mice, 26 Hours ([2]; 135 mg/kg i.v. simultaneously): 80%; Survival rate (%) of mice, 43 Hours ([2]; 135 mg/kg i.v. simultaneously): 80%; HbA1c value (KK-Ay mice; 30 mg/kg body weight/day): 6.79%; Percentage of subject with renal glomerulus solidification (++) (KK-Ay mice; 30 mg/kg body weight/day): 50%; Blood glucose level (KK-Ay mice; 30 mg/kg body weight/day): 304 mg/dL; HbA1c value (KK-Ay mice; 100 mg/kg body weight/day, 100 mg/kg/day): 5.40* %; Percentage of subject with renal glomerulus solidification (++) (KK-Ay mice; 100 mg/kg body weight/day): 30%; Blood glucose level (KK-Ay mice; 100 mg/kg body weight/day): 305 mg/dL; HbA1c value (KK-Ay mice; 100 mg/kg body weight/day, listed as adenosine N1-oxide, 100 mg/kg/day): 5.40% |
| OC[C@H]1O[C@@H](n2cnc3c(O)ncnc32)[C@H](O)[C@@H]1O [IN, inosine] | 166 | 169 | 140 | did not influence | 100 | 60 | 40 | 20 | 6.55 | 80 | 340 |  |
